Data as given in the supplement of paper PMC10627819.

What was measured:
[1] = test system: S. pneumoniae D39V; test: Bliss interaction score (quartile over a dose matrix) (fitness difference); higher = more antagonism (negative = synergy)
In short: (§1)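 The Bliss score is observed minus expected fitness, where expected fitness is the product of the single-drug fitness values inferred from the combination data. Fitness is the OD595 at the onset of stationary phase over the plate's robust no-drug mean, capped at 1. Scores are summarised by quartiles over technical, biological and donor/recipient replicates.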

[2] = test system: B. subtilis 168; test: as above
In short: as §1

[3] = test system: S. aureus DSM 20231; test: as above
In short: as §1

[4] = test system: S. aureus Newman; test: as above
In short: as §1

[5] = test system: B. subtilis 168; test: fitness (endpoint OD595 vs no drug) (fraction); higher = more growth
In short: (§2)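 With the first reading as background, OD595 was measured every 30 min for 14 h in 384-well plates kept at 37 °C and inoculated at OD595 0.01. TSB, LB Lennox or CY was the medium. Fitness is the optical density at the transition into stationary phase divided by the robust mean of no-drug control wells, with a cap of 1.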

[6] = test system: S. aureus Newman; test: as above
In short: as §2

[7] = test system: S. pneumoniae D39V; test: as above
In short: as §2
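Throughout, for Bliss interaction score (quartile over a dose matrix): first quartile when negative (synergy) and third quartile when positive (antagonism).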
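Throughout, for fitness (endpoint OD595 vs no drug): OD595 on entry to stationary phase over no-drug wells; at most 1.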

CO/N=C(\C(=O)N[C@@H]1C(=O)N2C(C(=O)O)=C(COC(N)=O)CS[C@H]12)c1ccco1 [Cefuroxime] + O=C(O[C@@H]1Cc2c(O)cc(O)cc2O[C@@H]1c1cc(O)c(O)c(O)c1)c1cc(O)c(O)c(O)c1 [EGCG]
Conditions | Bliss interaction score
[1] | 0.0461
[2] | 0.158
[3] | 0.0989
[4] | 0.0827

fitness, [5]
Conditions | first compound 0.04875 µg/mL | first compound 0.0975 µg/mL | first compound 0.195 µg/mL
partner 6.25 µg/mL | 0.74 | 0.667 | 0.438
partner 12.5 µg/mL | 0.376 | 0.493 | 0.506
partner 25 µg/mL | 0.249 | 0.219 | 0.17

fitness, one replicate
Conditions | first compound 0.04875 µg/mL | first compound 0.0975 µg/mL | first compound 0.195 µg/mL | first compound 0.39 µg/mL | first compound 0.78 µg/mL | first compound 1.562 µg/mL | first compound 3.125 µg/mL | first compound 6.25 µg/mL
[5], partner 6.25 µg/mL | – | – | – | 0.425 | 0.411 | 0.356 | 0.3 | 0.304
[5], partner 12.5 µg/mL | – | – | – | 0.461 | 0.436 | 0.195 | 0.236 | 0.279
[5], partner 25 µg/mL | – | – | – | 0.274 | 0.318 | 0.103 | 0.064 | 0.0477
[6], partner 12.5 µg/mL | 0.885 | 0.801 | 0.879 | – | – | – | – | –
[6], partner 25 µg/mL | 0.767 | 0.773 | 0.756 | – | – | – | – | –
[6], partner 50 µg/mL | 0.688 | 0.617 | 0.561 | – | – | – | – | –

O=C(O)c1cn(C2CC2)c2cc(N3CCNCC3)c(F)cc2c1=O [Ciprofloxacin] + CC1=C\[C@@H](O)CC(=O)Cc2nc(co2)C(=O)N2CCC=C2C(=O)O[C@H](C(C)C)[C@H](C)/C=C/C(=O)NC\C=C\1 [Virginiamycin M1]
Conditions | Bliss interaction score
[1] | -0.0532
[2] | -0.0881
[3] | 0.0396
[4] | 0.0616

fitness, one replicate
Conditions | first compound 0.078 µg/mL | first compound 0.125 µg/mL | first compound 0.156 µg/mL | first compound 0.25 µg/mL | first compound 0.312 µg/mL | first compound 0.5 µg/mL
[6], partner 0.5 µg/mL | 0.638 | – | 0.45 | – | 0.128 | –
[6], partner 1 µg/mL | 0.785 | – | 0.503 | – | 0.125 | –
[6], partner 2 µg/mL | 0.72 | – | 0.472 | – | 0.161 | –
[7], partner 0.15 µg/mL | – | 0.954 | – | 0.894 | – | 0.807
[7], partner 0.3 µg/mL | – | 0.928 | – | 0.844 | – | 0.816

fitness
Conditions | partner 0.0625 µg/mL | partner 0.125 µg/mL | partner 0.25 µg/mL | partner 0.5 µg/mL | partner 1 µg/mL | partner 2 µg/mL
[5], first compound 0.0098 µg/mL | 0.941 | 0.896 | 0.859 | – | – | –
[5], first compound 0.0195 µg/mL | 0.739 | 0.703 | 0.705 | – | – | –
[5], first compound 0.039 µg/mL | 0.139 | 0.0393 | 0.0545 | – | – | –
[6], first compound 0.0375 µg/mL | 0.664 | 0.662 | 0.672 | – | – | –
[6], first compound 0.075 µg/mL | 0.616 | 0.658 | 0.703 | – | – | –
[6], first compound 0.15 µg/mL | 0.0348 | 0.0378 | 0.0632 | – | – | –
[7], first compound 0.125 µg/mL | – | – | – | 0.969 | 0.96 | 0.909
[7], first compound 0.25 µg/mL | – | – | – | 0.874 | 0.842 | 0.784

O=C(O)c1cn(C2CC2)c2cc(N3CCNCC3)c(F)cc2c1=O [Ciprofloxacin] + CC(C1CCC(C(O1)OC2C(CC(C(C2O)OC3C(C(C(CO3)(C)O)NC)O)N)N)N)NC [Gentamicin]
main component drawn
Conditions | Bliss interaction score
[1] | -0.0953
[2] | 0.19
[3] | 0.0655
[4] | 0.12

main component drawn
Conditions | fitness
[5], first compound 0.0098 µg/mL, partner 0.0625 µg/mL | 0.881
[5], first compound 0.0195 µg/mL, partner 0.0625 µg/mL | 0.703
[5], first compound 0.039 µg/mL, partner 0.25 µg/mL | 0.117
[6], first compound 0.0375 µg/mL, partner 0.5 µg/mL | 0.786
[6], first compound 0.0375 µg/mL, partner 1 µg/mL | 0.877
[6], first compound 0.0375 µg/mL, partner 2 µg/mL | 0.917
[6], first compound 0.075 µg/mL, partner 0.5 µg/mL | 0.74
[6], first compound 0.075 µg/mL, partner 1 µg/mL | 0.786
[6], first compound 0.075 µg/mL, partner 2 µg/mL | 0.783
[6], first compound 0.15 µg/mL, partner 0.5 µg/mL | 0.43
[7], first compound 0.125 µg/mL, partner 2 µg/mL | 0.954
[7], first compound 0.125 µg/mL, partner 4 µg/mL | 0.92
[7], first compound 0.125 µg/mL, partner 8 µg/mL | 0.884
[7], first compound 0.25 µg/mL, partner 2 µg/mL | 0.792
[7], first compound 0.25 µg/mL, partner 4 µg/mL | 0.766
[7], first compound 0.25 µg/mL, partner 8 µg/mL | 0.677

fitness, [6], one replicate, main component drawn
Conditions | first compound 0.0375 µg/mL | first compound 0.075 µg/mL | first compound 0.15 µg/mL
partner 0.375 µg/mL | 0.704 | 0.787 | 0.0591
partner 0.75 µg/mL | 0.712 | 0.728 | 0.0774
partner 1.5 µg/mL | 0.639 | 0.175 | 0.0856

O=C(O)c1cn(C2CC2)c2cc(N3CCNCC3)c(F)cc2c1=O [Ciprofloxacin] + CCC[C@@H]1C[C@@H](C(=O)N[C@@H]([C@H]2O[C@H](SC)[C@H](O)[C@@H](O)[C@H]2O)[C@H](C)Cl)N(C)C1 [Clindamycin]
Conditions | Bliss interaction score
[1] | 0.061
[2] | 0.226
[3] | 0.0603
[4] | 0.157

Conditions | fitness
[5], first compound 0.0098 µg/mL, partner 0.0625 µg/mL | 0.508
[5], first compound 0.0098 µg/mL, partner 0.125 µg/mL | 0.394
[5], first compound 0.0098 µg/mL, partner 0.25 µg/mL | 0.373
[5], first compound 0.0195 µg/mL, partner 0.0625 µg/mL | 0.416
[5], first compound 0.0195 µg/mL, partner 0.125 µg/mL | 0.337
[5], first compound 0.0195 µg/mL, partner 0.25 µg/mL | 0.312
[5], first compound 0.039 µg/mL, partner 0.0625 µg/mL | 0.39
[5], first compound 0.039 µg/mL, partner 0.125 µg/mL | 0.311
[5], first compound 0.039 µg/mL, partner 0.25 µg/mL | 0.303
[6], first compound 0.0375 µg/mL, partner 0.0312 µg/mL | 0.545
[6], first compound 0.0375 µg/mL, partner 0.0625 µg/mL | 0.425
[6], first compound 0.0375 µg/mL, partner 0.125 µg/mL | 0.11
[6], first compound 0.075 µg/mL, partner 0.0312 µg/mL | 0.604
[6], first compound 0.075 µg/mL, partner 0.0625 µg/mL | 0.475
[6], first compound 0.075 µg/mL, partner 0.125 µg/mL | 0.153
[6], first compound 0.15 µg/mL, partner 0.0312 µg/mL | 0.335
[6], first compound 0.15 µg/mL, partner 0.0625 µg/mL | 0.292
[6], first compound 0.15 µg/mL, partner 0.125 µg/mL | 0.104
[7], first compound 0.125 µg/mL, partner 0.0125 µg/mL | 0.763
[7], first compound 0.125 µg/mL, partner 0.015 µg/mL | 0.8
[7], first compound 0.125 µg/mL, partner 0.025 µg/mL | 0.531
[7], first compound 0.125 µg/mL, partner 0.03 µg/mL | 0.54
[7], first compound 0.125 µg/mL, partner 0.05 µg/mL | 0.2
[7], first compound 0.125 µg/mL, partner 0.06 µg/mL | 0.325
[7], first compound 0.25 µg/mL, partner 0.0125 µg/mL | 0.733
[7], first compound 0.25 µg/mL, partner 0.025 µg/mL | 0.494
[7], first compound 0.25 µg/mL, partner 0.05 µg/mL | 0.168
[7], first compound 0.5 µg/mL, partner 0.0125 µg/mL | 0.636
[7], first compound 0.5 µg/mL, partner 0.015 µg/mL | 0.564
[7], first compound 0.5 µg/mL, partner 0.025 µg/mL | 0.434
[7], first compound 0.5 µg/mL, partner 0.03 µg/mL | 0.431
[7], first compound 0.5 µg/mL, partner 0.05 µg/mL | 0.158
[7], first compound 0.5 µg/mL, partner 0.06 µg/mL | 0.294

fitness, one replicate
Conditions | partner 0.0039 µg/mL | partner 0.0078 µg/mL | partner 0.015 µg/mL | partner 0.0156 µg/mL | partner 0.03 µg/mL | partner 0.06 µg/mL
[5], first compound 0.0098 µg/mL | ≥ 1 | 0.403 | – | 0.818 | – | –
[5], first compound 0.0195 µg/mL | 0.903 | 0.394 | – | 0.742 | – | –
[5], first compound 0.039 µg/mL | 0.627 | 0.326 | – | 0.557 | – | –
[7], first compound 0.25 µg/mL | – | – | 0.708 | – | 0.454 | 0.259

O=C(O)c1cn(C2CC2)c2cc(N3CCNCC3)c(F)cc2c1=O [Ciprofloxacin] + CCN(CC)CCOC(=O)c1ccc(N)cc1 [Procaine]
Conditions | Bliss interaction score
[1] | 0.0982
[2] | -0.0792
[3] | -0.053
[4] | 0.0759

fitness
Conditions | partner 85.5 µg/mL | partner 171 µg/mL | partner 342 µg/mL
[5], first compound 0.0098 µg/mL | 0.883 | 0.918 | 0.918
[5], first compound 0.0195 µg/mL | 0.688 | 0.755 | 0.721
[5], first compound 0.039 µg/mL | 0.0386 | 0.0363 | 0.0396
[6], first compound 0.0375 µg/mL | 0.65 | 0.644 | 0.635
[6], first compound 0.075 µg/mL | 0.658 | – | –
[7], first compound 0.125 µg/mL | ≥ 1 | ≥ 1 | ≥ 1
[7], first compound 0.25 µg/mL | 0.9 | 0.923 | 0.91
